The structures appear in SMILES notation.

This passage reports EC50 results from patent publication US20230087342A1, “AZEPANE DERIVATIVE” (Nippon Chemiphar Co., Ltd., priority 2019, published 2023).

The assay concerns the target T1, human κ opioid receptors (Homo sapiens, UniProt P41145).
T1 construct: host or cells: CHO cells
Briefly: Opioid receptor function test (Lance Ultra cAMP kit, agonist activity). It counts as cell-based. Conditions: CHO cells expressing human κ opioid receptors, 10 μM forskolin, 30 minutes. An outline of the steps:
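CHO cells expressing human κ opioid receptor incubated 30 min with test compound (10^−14 to 10^−7 M) and 10 μM forskolin in HSS/5 mM HEPES pH 7.4 with 0.5 mM IBMX and 0.1% SA. cAMP measured by TR-FRET (Lance Ultra) 1 h after detection reagent addition.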

T1 sequence (P41145 whole entry): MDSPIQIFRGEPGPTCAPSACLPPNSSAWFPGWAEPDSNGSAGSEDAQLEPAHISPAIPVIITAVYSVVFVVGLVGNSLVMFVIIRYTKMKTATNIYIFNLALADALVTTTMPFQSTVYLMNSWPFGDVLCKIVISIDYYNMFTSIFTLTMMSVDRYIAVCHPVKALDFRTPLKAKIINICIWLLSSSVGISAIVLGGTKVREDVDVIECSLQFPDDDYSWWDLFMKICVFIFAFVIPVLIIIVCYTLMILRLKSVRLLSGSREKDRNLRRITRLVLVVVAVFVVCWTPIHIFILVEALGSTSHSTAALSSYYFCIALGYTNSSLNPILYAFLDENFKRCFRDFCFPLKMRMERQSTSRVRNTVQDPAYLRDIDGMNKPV

As a reminder, the EC50 is the concentration needed to bring the measured effect to its halfway point. A lower EC50 goes with greater potency. Compound `NC(=O)c1ccc2c(c1)[C@@]13CCN(C(=O)CCn4cc(C(F)(F)F)cn4)CC[C@@]1(O)[C@@H](C2)N(CC1CC1)CC3` [Example 264, (5aS,6R,11bR)-14-(cyclopropylmethyl)-5a-hydroxy-3-(3-(4-(trifluoromethyl)-1H-pyrazol-1-yl)propanoyl)-1,2,3,4,5,5a,6,7-octahydro-6,11b-(epiminoethano)naphtho[1,2-d]azepine-10-carboxamide] showed a half-maximal effective concentration (EC50) of 0.29 nM. Next, `Cc1cn(CCN2CC[C@]34CCN(CC5CC5)[C@H](Cc5ccc(O)cc53)[C@]4(O)CC2)nc1C(F)(F)F` [Example 164, (5aS,6R,11bS)-14-(cyclopropylmethyl)-3-(2-(4-methyl-3-(trifluoromethyl)-1H-pyrazol-1-yl)ethyl)-2,3,4,5,6,7-hexahydro-6,11b-(epiminoethano)naphtho[1,2-d]azepine-5a,10(1H)-diol]: 0.26 nM; `Cc1cc(CC(=O)N2CC[C@]34CCN(CC5CC5)[C@H](Cc5cc(C)c(O)cc53)[C@]4(O)CC2)ns1` [Example 323, 1-((5aS,6R,11bR)-14-(cyclopropylmethyl)-5a,10-dihydroxy-9-methyl-1,2,5,5a,6,7-hexahydro-6,11b-(epiminoethano)naphtho[1,2-d]azepin-3(4H)-yl)-2-(5-methylisothiazol-3-yl)ethan-1-one]: 0.18 nM.

The compound `Cc1cc2c(cc1O)[C@@]13CCN(C(=O)CN4CC[C@@H](C)C4)CC[C@@]1(O)[C@@H](C2)N(CC1CC1)CC3` [Example 336, 1-((5aS,6R,11bR)-14-(cyclopropylmethyl)-5a,10-dihydroxy-9-methyl-1,2,5,5a,6,7-hexahydro-6,11b-(epiminoethano)naphtho[1,2-d]azepin-3(4H)-yl)-2-((R)-3-methylpyrrolidin-1-yl)ethan-1-one] came in with a concentration for a half-maximal effect (EC50) of 0.18 nM.

For the compound `Cc1cnn(CCN2CC[C@]34CCN(CC5CC5)[C@H](Cc5ccc(O[C@@H]6O[C@H](C(=O)O)[C@@H](O)C(O)[C@H]6O)cc53)[C@]4(O)CC2)c1` (stereo partly drawn) [Example 246, (2S,3S,5R,6S)-6-(((5aS,6R,11bS)-14-(cyclopropylmethyl)-5a-hydroxy-3-(2-(4-methyl-1H-pyrazol-1-yl)ethyl)-1,2,3,4,5,5a,6,7-octahydro-6,11b-(epiminoethano)naphtho[1,2-d]azepin-10-yl)oxy)-3,4,5-trihydroxytetrahydro-2H-pyran-2-carboxylic acid], a half-maximal effect (EC50) was put at 2.6 nM. As for `Oc1ccc2c(c1)[C@@]13CCN(CCn4cc(C5CC5)cn4)CC[C@@]1(O)[C@@H](C2)N(CC1CC1)CC3` [Example 183, (5aS,6R,11bS)-3-(2-(4-cyclopropyl-1H-pyrazol-1-yl)ethyl)-14-(cyclopropylmethyl)-2,3,4,5,6,7-hexahydro-6,11b-(epiminoethano)naphtho[1,2-d]azepine-5a,10(1H)-diol], the figure is 0.03 nM; as for `Oc1ccc2c(c1)[C@@]13CCN(CCn4nc(C(F)F)cc4C(F)F)CC[C@@]1(O)[C@@H](C2)N(CC1CC1)CC3` [Example 58, (5aS,6R,11bS)-3-(2-(3,5-bis(difluoromethyl)-1H-pyrazol-1-yl)ethyl)-14-(cyclopropylmethyl)-2,3,4,5,6,7-hexahydro-6,11b-(epiminoethano)naphtho[1,2-d]azepine-5a,10(1H)-diol], 0.14 nM. Next, `Cc1cc(CCC(=O)N2CC[C@]34CCN(CC5CC5)[C@H](Cc5ccc(O)cc53)[C@]4(O)CC2)ns1` [Example 217, 1-((5aS,6R,11bR)-14-(cyclopropylmethyl)-5a,10-dihydroxy-1,2,5,5a,6,7-hexahydro-6,11b-(epiminoethano)naphtho[1,2-d]azepin-3(4H)-yl)-3-(5-methylisothiazol-3-yl)propan-1-one]: 0.18 nM; `Oc1ccc2c(c1)[C@@]13CCN(CCc4cc[nH]n4)CC[C@@]1(O)[C@@H](C2)N(CC1CC1)CC3` [Example 27, (5aS,6R,11bS)-3-(2-(1H-pyrazol-3-yl)ethyl)-14-(cyclopropylmethyl)-2,3,4,5,6,7-hexahydro-6,11b-(epiminoethano)naphtho[1,2-d]azepine-5a,10(1H)-diol]: 0.13 nM. As for `Cc1cnn(CCN2CC[C@]34CCN(CC5(F)CC5)[C@H](Cc5ccc(O)cc53)[C@]4(O)CC2)c1` [Example 226, (5aS,6R,11bS)-14-((1-fluorocyclopropyl)methyl)-3-(2-(4-methyl-1H-pyrazol-1-yl)ethyl)-2,3,4,5,6,7-hexahydro-6,11b-(epiminoethano)naphtho[1,2-d]azepine-5a,10(1H)-diol], the figure is 0.017 nM. `Cc1cnn(CCN2CC[C@]34CCN(CC5CC5)[C@H](Cc5ccc(O)cc53)[C@]4(O)CC2C)c1` (stereo partly drawn) [Example 274, (5aS,6R,11bS)-14-(cyclopropylmethyl)-4-methyl-3-(2-(4-methyl-1H-pyrazol-1-yl)ethyl)-2,3,4,5,6,7-hexahydro-6,11b-(epiminoethano)naphtho[1,2-d]azepine-5a,10(1H)-diol] had an EC50 of 0.07 nM.

`Oc1ccc2c(c1)[C@@]13CCN(CC4(c5ccccn5)CC4)CC[C@@]1(O)[C@@H](C2)N(CC1CC1)CC3` [Example 108, (5aS,6R,11bS)-14-(cyclopropylmethyl)-3-((1-(pyridin-2-yl)cyclopropyl)methyl)-2,3,4,5,6,7-hexahydro-6,11b-(epiminoethano)naphtho[1,2-d]azepine-5a,10(1H)-diol] showed a concentration for a half-maximal effect (EC50) of 0.066 nM. Next, `C[Si]1(C)CCN(CCN2CC[C@]34CCN(CC5CC5)[C@H](Cc5ccc(O)cc53)[C@]4(O)CC2)CC1` [Example 133, (5aS,6R,11bS)-14-(cyclopropylmethyl)-3-(2-(4,4-dimethyl-1,4-azasilinan-1-yl)ethyl)-2,3,4,5,6,7-hexahydro-6,11b-(epiminoethano)naphtho[1,2-d]azepine-5a,10(1H)-diol]: 0.033 nM. `O=C(CCn1cc(C(F)(F)F)cn1)N1CC[C@]23CCN(CC4CC4)[C@H](Cc4ccc(O)cc42)[C@]3(O)CC1` [Example 169, 1-((5aS,6R,11bR)-14-(cyclopropylmethyl)-5a,10-dihydroxy-1,2,5,5a,6,7-hexahydro-6,11b-(epiminoethano)naphtho[1,2-d]azepin-3(4H)-yl)-3-(4-(trifluoromethyl)-1H-pyrazol-1-yl)propan-1-one]: the EC50 turned out to be 0.094 nM. Next, `C[Si]1(C)CCN(CC(=O)N2CC[C@]34CCN(CC5CC5)[C@H](Cc5ccc(O)cc53)[C@]4(O)CC2)CC1` [Example 132, 1-((5aS,6R,11bR)-14-(cyclopropylmethyl)-5a,10-dihydroxy-1,2,5,5a,6,7-hexahydro-6,11b-(epiminoethano)naphtho[1,2-d]azepin-3(4H)-yl)-2-(4,4-dimethyl-1,4-azasilinan-1-yl)ethan-1-one]: 0.16 nM; `Cc1cnn(CC(=O)N2CC[C@]34CCN(CC5CC5)[C@H](Cc5cc(C)c(O)cc53)[C@]4(O)CC2)c1` [Example 328, 1-((5aS,6R,11bR)-14-(cyclopropylmethyl)-5a,10-dihydroxy-9-methyl-1,2,5,5a,6,7-hexahydro-6,11b-(epiminoethano)naphtho[1,2-d]azepin-3(4H)-yl)-2-(4-methyl-1H-pyrazol-1-yl)ethan-1-one]: 0.33 nM. As for `CCCN1CC[C@]23CCN(CCc4ccccn4)CC[C@@]2(O)[C@H]1Cc1ccc(O)cc13` [Example 159, (5aS,6R,11bS)-14-propyl-3-(2-(pyridin-2-yl)ethyl)-2,3,4,5,6,7-hexahydro-6,11b-(epiminoethano)naphtho[1,2-d]azepine-5a,10(1H)-diol], the figure is 0.77 nM; as for `Cc1cnn([C@H]2CC[C@@H](N3CC[C@]45CCN(CC6CC6)[C@H](Cc6ccc(O)cc64)[C@]5(O)CC3)C2)c1` [Example 236, (5aS,6R,11bS)-14-(cyclopropylmethyl)-3-((1R,3S)-3-(4-methyl-1H-pyrazol-1-yl)cyclopentyl)-2,3,4,5,6,7-hexahydro-6,11b-(epiminoethano)naphtho[1,2-d]azepine-5a,10(1H)-diol], 0.012 nM; as for `Cn1nc(CCN2CC[C@]34CCN(CC5CC5)[C@H](Cc5ccc(O)cc53)[C@]4(O)CC2)c2ccccc21` [Example 113, (5aS,6R,11bS)-14-(cyclopropylmethyl)-3-(2-(1-methyl-1H-indazol-3-yl)ethyl)-2,3,4,5,6,7-hexahydro-6,11b-(epiminoethano)naphtho[1,2-d]azepine-5a,10(1H)-diol], 0.56 nM. As for `Oc1ccc2c(c1)[C@@]13CCN(CCc4ccccn4)CC[C@@]1(O)[C@@H](C2)N(CC1CCC1)CC3` [Example 162, (5aS,6R,11bS)-14-(cyclobutylmethyl)-3-(2-(pyridin-2-yl)ethyl)-2,3,4,5,6,7-hexahydro-6,11b-(epiminoethano)naphtho[1,2-d]azepine-5a,10(1H)-diol], the figure is 0.39 nM; as for `O=C(CCc1nccs1)N1CC[C@]23CCN(CC4CC4)[C@H](Cc4ccc(O)cc42)[C@]3(O)CC1` [Example 210, 1-((5aS,6R,11bR)-14-(cyclopropylmethyl)-5a,10-dihydroxy-1,2,5,5a,6,7-hexahydro-6,11b-(epiminoethano)naphtho[1,2-d]azepin-3(4H)-yl)-3-(thiazol-2-yl)propan-1-one], 0.72 nM; as for `N#Cc1cnn(CCN2CC[C@]34CCN(CC5CC5)[C@H](Cc5ccc(O)cc53)[C@]4(O)CC2)c1` [Example 189, 1-(2-((5aS,6R,11bS)-14-(cyclopropylmethyl)-5a,10-dihydroxy-1,2,5,5a,6,7-hexahydro-6,11b-(epiminoethano)naphtho[1,2-d]azepin-3(4H)-yl)ethyl)-1H-pyrazole-4-carbonitrile], 0.39 nM.

`Oc1ccc2c(c1)[C@@]13CCN(CCc4cc5ccccn5n4)CC[C@@]1(O)[C@@H](C2)N(CC1CC1)CC3` [Example 118, (5aS,6R,11bS)-14-(cyclopropylmethyl)-3-(2-(pyrazolo[1,5-a]pyridin-2-yl)ethyl)-2,3,4,5,6,7-hexahydro-6,11b-(epiminoethano)naphtho[1,2-d]azepine-5a,10(1H)-diol] returned a 50% effective concentration (EC50) of 0.016 nM.
